The values that follow come from patent US7777070B2, “Acyloxyalkyl carbamate prodrugs of tranexamic acid, methods of synthesis and use” (XenoPort, Inc., priority 2005, dated 2010).

For data set [1], the system named is Caco-2 cells.
Procedure: (§1) For example, passive permeability can be evaluated by examining the flux of a prodrug across a cultured polarized cell monolayer (e.g., Caco-2 cells).
(§2) Caco-2 cells obtained from continuous culture (passage less than 28) were seeded at high density onto Transwell polycarbonate filters. Cells were maintained with DMEM/10% fetal bovine serum, 1 mM nonessential amino acids, and 6 mM L-Gln, 5% CO2/95% O2, at 37° C. until the day of the experiment. Permeability studies were conducted at pH 6.5 apically (in 50 mM MES buffer containing 1 mM CaCl2, 1 mM MgCl2, 150 mM NaCl, 3 mM KCl, 1 mM NaH2PO4, 5 mM glucose) and pH 7.4 basolaterally (in Hanks' balanced salt solution containing 10 mM HEPES) in the presence of efflux pump inhibitors (250 μM MK-571 and 250 μM Verapamil). Inserts were placed in 12 or 24 well plates containing buffer and incubated for 30 min at 37° C. Prodrug (200 μM) was added to the apical or basolateral compartment (donor) and concentrations of prodrug and/or released parent drug in the opposite compartment (receiver) were determined at intervals over 1 hour using LC/MS/MS. Values of apparent permeability (Papp) were calculated using the equation: Papp=Vr(dC/dt)//(ACo) where Vr is the volume of the receiver compartment in mL; dC/dt is the total flux of prodrug and parent drug (μM/sec), determined from the slope of the plot of concentration in the receiver compartment versus time; C0 is the initial concentration of prodrug in μM; and A is the surface area of the membrane in cm^2.
The conditions of data set [2]: cited from earlier work.
The conditions of data set [3]: cited from earlier work. This is another data set of the same source.
The test system of data set [4] is Caco-2 cells. In words: Caco-2 cellular permeability. To be noted: ratio of Papp apical to basolateral / basolateral to apical.
Procedure: as §1, §2
The nature of data set [5]: Pharmacokinetics of tranexamic acid after administration of tranexamic acid or prodrug to rats. The format is in vivo, Sprague-Dawley rats. To be noted: for AUC(0-inf) / bioavailability / Cmax / half-life / Tmax / AUC(0-t) / F* (bioavailability of tranexamic acid) / AUCinf / AUCt / T1/2-λ: rat; for bioavailability / F* (bioavailability of tranexamic acid): versus i.v. tranexamic acid AUCinf 22.2 hr·μg/mL; for bioavailability: read-out: F* (bioavailability of tranexamic acid); for half-life: read-out: T1/2-λ (converted). On the procedure:
Tranexamic acid or a tranexamic acid prodrug of the present disclosure was administered as an intravenous bolus injection (i.v.), by oral gavage (p.o.), or by intracolonic (i.c.) administration via an indwelling catheter in the ascending colon to groups of four to six adult male Sprague-Dawley rats (weight approximately 250 g). Animals were fasted overnight before the study and for 4 hours post-dosing and were conscious at the time of the experiment. When administered intravenously, tranexamic acid was administered as a solution in water at a dose equivalent to 16 mg (0.1 mmol) of tranexamic acid per kg body weight. Prodrugs were orally or intracolonically administered as a suspension in 0.5% methyl cellulose in 0.1% Tween 80 at a dose equivalent to 16 mg (0.1 mmol) of tranexamic acid per kg body weight. Blood samples (300 μL) were obtained via a jugular vein cannula at intervals over 8 hours after oral dosing. Blood was quenched immediately using methanol and then was frozen at −80° C. until analyzed.
The following procedure was used to prepared blood samples for analysis:
1. Rat blood (100 μL) was collected at different times into K2EDTA tubes, 300 μL of methanol, and the mixture was vortexed to mix the ingredients.
2. Blank rat blood (90 μL) was quenched with 300 μL of methanol. Then ten μL of a standard stock solution (0.04, 0.2, 1, 5, 25, and 100 μg/mL) were added to the tube individually. Then 20 μL of p-chlorophenylalanine (5 μg/mL in 50% methanol) was added to each tube to make up a final calibration standard (0.004, 0.02, 0.1, 0.5, 2.5, and 10 μg/mL). The samples were vortexed and centrifuged at 14,000 rpm for 20 min.
3. To the quenched blood samples were added 20 μL of p-chlorophenylalanine (5 μg/mL in 50% methanol), the samples were vortexed and centrifuged at 14,000 rpm for 20 min.
4. The supernatant was analyzed by LC/MS/MS.
The following method was used for LC/MS/MS Analysis of the prepared blood samples. An API 4000 or 2000 LC/MS/MS spectrometer equipped with Agilent 1100 binary pumps and a CTC HTS-PAL autosampler were used in the analysis. A ThermoHypersil-BetaSil C18, 100×4.6 mm, 5 μm column was used during the analysis. The mobile phase for the analysis of tranexamic acid and prodrug was (A) 0.1% formic acid in water, and (B) 0.1% formic acid in acetonitrile. The gradient condition was: 2% eluent-B to 95% eluent-B for 2.5 min, then to 98% eluent-B to 4.0 min. At 4.1 min, it was returned to 2% eluent-B and maintained at 2% eluent-B till 6.0 min. The flow rate was 1 mL/min. An ESI source was used on the API 4000. The analysis of tranexamic acid was performed in positive ion mode for and negative ion mode was used for analysis of tranexamic acid prodrugs.
The MRM transition for each analyte was optimized using standard solutions. 20 μL of the sample was injected. Non-compartmental analysis was performed using WinNonlin (v.3.1 Professional Version, Pharsight Corporation, Mountain View, Calif.) on individual animal profiles. Summary statistics on major parameter estimates was performed for Cmax (peak observed concentration following dosing), Tmax (time to maximum concentration is the time at which the peak concentration was observed), AUC(0-t) (area under the serum concentration-time curve from time zero to last collection time, estimated using the log-linear trapezoidal method), AUC(0-∞), (area under the serum concentration time curve from time zero to infinity, estimated using the log-linear trapezoidal method to the last collection time with extrapolation to infinity), and t1/2 (terminal half-life).
The oral or intracolonic bioavailability (F) of tranexamic acid was determined by comparing the area under the tranexamic acid concentration vs. time curve (AUC) following oral or intracolonic administration of tranexamic acid or prodrug with the AUC of the tranexamic acid concentration vs. time curve following intravenous administration of tranexamic acid on a dose normalized basis. […]

[6] abbreviates: male, Sprague-Dawley, whole blood, po, tranexamic acid in blood, dose equivalent to 16 mg/kg, mean (SD).
The mark [7] stands for this setting: male, Sprague-Dawley, whole blood, tranexamic acid in blood, i.c., dose equivalent to 16 mg/kg, mean (SD).
[8] abbreviates: tranexamic acid in blood, i.c., dose equivalent to 16 mg/kg, mean (SD).
The mark [9] stands for this setting: tranexamic acid in blood, p.o., dose equivalent to 16 mg/kg, mean (SD).

Read-outs that look alike come from different tables or passages of the source.

As usually defined, the AUC(0-inf) is total exposure, with the tail of the curve extrapolated. The bioavailability is the share of a dose that reaches the circulation, judged against a reference dose that is usually intravenous. By AUC(0-t) is commonly meant exposure summed from dosing to a finite time, without extrapolation to infinity.

Take `CC(OC(=O)NC[C@H]1CC[C@H](C(=O)[O-])CC1)OC(=O)C(C)C.[Na+]` (stereo partly drawn) [Compound 14, Sodium trans-4-{[1-(2-Methylpropanoyloxy)ethoxycarbonyl]-aminomethyl}-Cyclohexanecarboxylate]: the “Ratio A-B/B-A” value with Caco-2 cells [1] came to 3.4.
For `NC[C@H]1CC[C@H](C(=O)O)CC1` [Compound 1, trans-4-(aminomethyl)-cyclohexanecarboxylic acid, reference compound], the “reduction of menstrual blood loss” value in data set [2] (women with menorrhagia) was around 50%. Also, the “absorption following rectal administration” value in data set [3] (rectal administration in humans (Almer et al.)) is on record as “poorly absorbed”. In addition, the oral bioavailability in data set [3] (tranexamic acid, oral) is recorded as around 30%. Also, in data set [3] (tranexamic acid), the terminal elimination half-life was around 2 h. For the same compound, the “Ratio A-B/B-A” value with Caco-2 cells [4] is listed as 1.3. Also, the AUC(0-inf) in data set [5] (male, Sprague-Dawley, whole blood, iv, intravenously administered tranexamic acid, 16 mg/kg) amounted to 22.2 µg·h/mL; in data set [5] (setting [6]), 7.8 µg·h/mL; in data set [5] (setting [7]) it was 0.8 µg·h/mL. Moreover, the bioavailability in data set [5] (male, Sprague-Dawley, whole blood, other: intracolonic, 16 mg/kg, i.c., mean (SD)) is 5%; in data set [5] (male, Sprague-Dawley, whole blood, po, 16 mg/kg, p.o., mean (SD)), 37%. The Cmax in data set [5] (male, Sprague-Dawley, whole blood, po, tranexamic acid in blood, p.o., dose equivalent to 16 mg tranexamic acid per kg, mean (SD), read-out: Cmax) was found to be 2.06 µg/mL; in data set [5] (male, Sprague-Dawley, whole blood, tranexamic acid in blood, i.c. (intracolonic), dose equivalent to 16 mg/kg, mean (SD), read-out: Cmax), 0.22 µg/mL. The half-life in data set [5] (male, Sprague-Dawley, whole blood, po, tranexamic acid in blood, p.o., dose equivalent to 16 mg/kg, mean (SD)) was 1.9 h; in data set [5] (setting [7]), 1.7 h. Moreover, the Tmax in data set [5] (male, Sprague-Dawley, whole blood, po, tranexamic acid in blood, p.o., dose equivalent to 16 mg/kg, mean (SD), read-out: Tmax) was 1.1 h; in data set [5] (male, Sprague-Dawley, whole blood, tranexamic acid in blood, i.c., dose equivalent to 16 mg/kg, mean (SD), read-out: Tmax), 3.1 h. The AUC(0-t) in data set [5] (setting [6]) came out at 7.3 µg·h/mL; in data set [5] (setting [7]), 0.6 µg·h/mL.
`CCOC(=O)OC(C)OC(=O)[C@H]1CC[C@H](CN)CC1` (relative stereo) [Kabi 2161, 1-(ethoxycarbonyl)oxyethyl trans-4-(aminomethyl)-cyclohexanecarboxylate]: in data set [2] (women suffering from idiopathic menorrhagia), the “effect on menstrual blood loss” value was “effective in reducing menstrual blood loss”. Also, the “oral bioavailability of tranexamic acid from prodrug” value in data set [3] (human patients, oral) is “markedly improved”.
Take `CC(OC(=O)NC[C@H]1CC[C@H](C(=O)O)CC1)OC(=O)C(C)C` (stereo partly drawn) [Compound 13, trans-4-{[1-(2-Methylpropanoyloxy)ethoxycarbonyl]-aminomethyl}-Cyclohexanecarboxylic Acid]: the “Ratio A-B/B-A” value with Caco-2 cells [4] was 4.8. Further, the “F* (bioavailability of tranexamic acid)” value in data set [5] (i.c., mean (SD)) is 98 (10) %. For the same compound, the “levels of prodrug following oral gavage administration” value in data set [5] (intact prodrug in blood, oral gavage, rat (FIG. 2)) was “below the level of detection”. The “F* (bioavailability of tranexamic acid)” value in data set [5] (p.o., mean (SD)) is listed as 73 (9) %. Also, the Cmax in data set [5] (tranexamic acid in blood, i.c. (intracolonic), dose equivalent to 16 mg/kg, mean (SD)) is reported as 7.82 (5.2) μg/mL. Further, in data set [5] (setting [8]), the AUCinf is 21.8 µg·h/mL, the AUCt was 21.5 (2.3) hr · μg/mL, the T1/2-λ is 4.2 (0.8) h and the Tmax is given as 0.5 (0.1) h. For the same compound, the Cmax in data set [5] (tranexamic acid in blood, p.o., dose equivalent to 16 mg tranexamic acid per kg, mean (SD)) is 5.64 (0.58) μg/mL. Besides, in data set [5] (setting [9]), the AUCinf is given as 17.1 (2.0) hr · μg/mL, the AUCt is reported as 15.7 (2.0) hr · μg/mL, the T1/2-λ was 2.2 (0.2) h and the Tmax is 0.8 (0.3) h.
